Consider eleven compounds from article PMC6161179, “Looking for Novel Capsid Protein Multimerization Inhibitors of Feline Immunodeficiency Virus” (Pharmaceuticals, 2018).

Like-named read-outs stand apart in the source and are kept apart here.

Data set [1] addresses T1, FIV CA (p24) (Feline immunodeficiency virus, UniProt P16087).
T1 construct: The FIV CA protein was expressed and purified mostly as described; made in house; host or cells: Escherichia coli BL21(DE3) pLysS
Briefly: Microscale thermophoresis (MST) binding to CA. The protocol:
The major disadvantage of this method is the interference of the compound with the measurement, either by autofluorescence or quenching.
We explored the binding affinity at two different times (10 and 60 min) to enhance the poetical interactions.
MTS experiments were performed according to the NanoTemper technologies protocol in a Monolith NT.115 (green/blue) instrument (NanoTemper Technologies, München, Germany). With this technique, the diffusion behavior of a labeled protein is measured when an infrared light excites the movement of the protein in capillaries. This behavior is the combination of two effects: the fast, local environment dependent responses of the fluorophore to the temperature jump and the slower diffusive thermophoresis fluorescence changes. It will be modified when the protein is complexed with increasing amounts of unlabeled partners, leading to titration curves that can be fit for Kd estimation. In practice, CA was labeled with the Monolith His-Tag Labeling Kit RED-tris-NTA (NanoTemper Technologies, München, Germany), as described by the manufacturer. The experiments were performed using 20% and 40% MST power and between 20–80% LED power at 24 °C. The MST traces were recorded using the standard parameters: 5 s MST power off, 30 s MST power on, and 5 s MST power off. The compounds were used at high concentrations (around 5 mM) in the bindings check assay with DMSO at 5% v/v. If the binding check was positive, then the affinity determination was performed with the same experimental settings, with serial 2× dilutions of the compound of interest.
Background: MST reads how a fluorescent partner responds to local heating, with and without ligand.

In a further data set the test system is HIV-1 capsid protein. Set-up: method as in PMID 12662926. To be noted: read-out: EC50 (affinity); cited from earlier work.
The subject of a further data set is HIV-1. Set-up: method as in PMID 12662926. The following applies: at 100 µM; cited from earlier work.
For data set [2], the target named is T1, FIV CA (p24). The data set is described as follows: In vitro CA assembly assay (spectrophotometry / light scattering). The class given is biochemical. The following applies: re-validated by light scattering and spectrophotometry; compounds at 25 or 50 µM. As for the experimental part:
Indeed, our initial assay used light scattering and could only monitor the assembly of one sample per experiment on 40 min kinetics. […] The use of the spectrometric technique to follow capsid assembly has been described for HIV [24] and is based on the detection of capsid assembly via the measurement of the increase of medium turbidity. The use of this technique to monitor FIV p24 assembly allowed us to use 384-well plates, reducing the volume of protein to 15 µL per sample and allowing a testing of 10 compounds, in duplicate, in 40 min. Moreover, in this format, the protein concentration (5 mg/mL) was enough to start the assembly without needing the high concentration of salt used in the HIV in vitro assembly assay. High salt concentration could cause a problem by interfering with the solvation and solubility of some molecules and the loss of their interaction with the target. The only limitation of this method using low volumes was the risk of introducing air bubbles in the reaction, which interfere negatively in the absorbance measurement. However, this issue was solved by a careful manipulation in the filling process of the plates.
With this spectrometric assembly assay, we were able to discriminate two different behaviors for compounds interfering with the assembly of FIV CA: the enhancement of the assembly or its inhibition. The enhancement of assembly is associated with an increase of the diameter of the assembled objects and could result in a disordered or altered capsid with a loss of function. Inhibition is the classical effect which would impair the formation of the capsid (Figure 3).
High nitrogen content heretocycles were not a good source of bioactive molecules. Some compounds with structural similarities with Bevirimat were also active, like some steroid compounds clustered in diverse families. […] We could not find active molecules in four families (i.e., selenium containing compounds, flavones, triazines, and indazoles).
The CA assembly assay was performed in a final volume of 50 μL in 384-well plates, with a final concentration of 5 mg/mL of purified recombinant FIV […] in 50 mM NaH2PO4 and 1 M NaCl, pH 7.4. Absorbance is measured at 340 nm every 30 s in a multiplate reader Varioskan^TM Flash Multimode Reader (Thermo Scientific^TM, Waltham, MA, USA) at 38 °C for 30 min. The compounds were tested at a fixed initial dose of 25 or 50 μM (at 0.5% DMSO v/v) by adding 1 µL of the concentrated ligand were added to the well before starting the measurement. The controls were CA at 5 mg/mL in only 0.5% DMSO v/v and CA without DMSO. The criteria to select active compounds were the observation of at least 50% of assembly inhibition at these doses, based on the reduction of the OD value at 340 nm at the plateau value compared to the controls.

Data set [3] relates to J774.1 murine macrophage cells. The data set is described as follows: MTT cytotoxicity assay in J774.1 murine macrophages. The class given is cell-based. The following applies: compound at 100µM, 48 h. The protocol:
(§1) Vero cell lines (ATCC, Rockville, MD, USA) were cultivated in Dulbecco’s modified Eagles medium (DMEM) with 10% FCS in a humid atmosphere of 5% CO2 at 37 °C. Vero cells were seeded in 96-well plates at an initial density of 5 × 10^3 cells per well. J774.1 murine macrophage cells (ATCC, Manassas, VA, USA) were grown in DMEM culture milieu containing 4 mM L-glutamine and supplemented with 10% FCS. The cells were seeded in a 96-well plate (5 × 10^4 cells in 200 µL culture medium) and incubated at 37 °C in a 5% CO2 atmosphere for 48 h, to allow cell adhesion prior to drug testing. Both cell lines were exposed for 48 h (at 37 °C and 5% CO2) to the compounds (100 µM) or the solvent (0.4% DMSO) for the control, and additional controls (cells in medium) were used in each test. The cytotoxicity of the compounds was evaluated by MTT reduction assays. To proceed with the MTT assay, 20 μL of 3-(4,5-dimethylthiazol-2-yl)-2,5-diphenyl-2H-tetrazolium bromide (MTT) 5 mg/mL solution dissolved in 1× PBS was added to the wells and incubated for 4 h at 37 °C in a 5% CO2 controlled atmosphere. Next, the medium was aspirated and 100 μL of DMSO was added to each well and incubated at room temperature in the dark for 15 min with moderate orbital shaking. Optical density (OD) was read in a plate spectrophotometer (Thermo Scientific Varioskan® Flash Multimode, Waltham, MA, USA) at 570 and 690 nm wavelengths. Each experiment was performed in triplicate. For the statistical analyses, the GraphPad Prism 6 was used. Dunnett’s multiple comparison tests and Student’s T-test were used when we compared the averages of each condition with the control.
For orientation: Tetrazolium dyes change colour on reduction, which living cells bring about.

Another data set has as its system Vero cell lines. Briefly: MTT cytotoxicity assay in Vero cells. Type of data set: cell-based. The following applies: compound at 100µM, 48 h. The protocol: as §1
The next data set deals with murine macrophages. Set-up: method as in PMID 28481276. The following applies: read-out: cytotoxicity IC50; cited from earlier work.
The test system of data set [4] is murine acute infection model of the Chagas disease. Set-up: method as in PMID 26492824. The following applies: 100 mg/kg body for 15 days; cited from earlier work.
For data set [5], the system named is five different enzymes from pathogen parasites. Set-up: method as in PMID 20889239, PMID 28481276. To be noted: at 100 µM; cited from earlier work.
Where [6] appears, read: 1 h (60 min), read-out: 1h EC50.

T1 sequence (P16087 136-357): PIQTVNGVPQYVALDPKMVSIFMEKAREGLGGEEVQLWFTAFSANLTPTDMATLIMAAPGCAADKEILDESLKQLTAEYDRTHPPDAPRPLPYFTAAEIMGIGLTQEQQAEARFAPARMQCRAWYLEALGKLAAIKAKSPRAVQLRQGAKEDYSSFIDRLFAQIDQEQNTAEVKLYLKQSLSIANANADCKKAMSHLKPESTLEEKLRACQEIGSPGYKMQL

One may read the EC50 as the concentration at which the effect is half-maximal. With `Nc1ccc(S(=O)(=O)c2ccc(Nc3c([N+](=O)[O-])c(Nc4ccc(S(=O)(=O)c5ccc(N)cc5)cc4)c4no[n+]([O-])c4c3[N+](=O)[O-])cc2)cc1` [compound 703], the half-maximal effective concentration (EC50) is 320 µM at FIV CA (p24) [1] (10 min, read-out: 10 min EC50) and 720 µM on FIV CA (p24) [1] (setting [6]).

Consider `C=CCn1c(C)cs\c1=N/N=C/C=C/c1cccs1` [compound 1128], for which the EC50 came to 322 µM at FIV CA (p24) [1] (10 min, read-out: 10 min EC50) and 484 µM at FIV CA (p24) [1] (setting [6]).

On to `O=C1C(=Cc2ccc([N+](=O)[O-])cc2)C(=O)N(CCc2ccccc2)S(=O)(=O)N1CCc1ccccc1` [compound 110], for which the EC50 amounted to 1100 µM on FIV CA (p24) [1] (10 min, read-out: 10 min EC50) and 789 µM on FIV CA (p24) [1] (setting [6]).

Regarding `Cc1ccc(NC(=O)NCCSCc2ccc(CN(C)C)o2)cc1Cl` [CAP-1], the EC50 with HIV-1 capsid protein was 60 µM. For the same compound, the “activity in the in vitro infection assay” value with HIV-1 is “active”.

For `C=CCNC(=S)N/N=C/c1ccc2c(c1)c1cc(/C=N/NC(=S)NCC=C)ccc1n2CC(CC)CCCC` (centres unmarked) [compound 1368], the EC50 on FIV CA (p24) [1] (setting [6]) worked out at 35 µM.

On to `C=CCn1c(C(=O)O)cs\c1=N/N=C/C=C/c1ccc(C)o1` [compound 789], for which the EC50 on FIV CA (p24) [1] (10 min, read-out: 10 min EC50) stood at 640 µM; on FIV CA (p24) [1] (setting [6]), 655 µM.

With `C=CCN1C(=O)CS\C1=N/N=C/C=C/c1cccs1` [compound 1138], the EC50 was determined as 242 µM on FIV CA (p24) [1] (10 min, read-out: 10 min EC50) and 180 µM at FIV CA (p24) [1] (setting [6]).

One may read the IC50 as the concentration that inhibits the measured activity by half. With `O=C1/C(=C/C=C/c2ccccc2)CC/C1=C\C=C\c1ccccc1` [compound 1246], the “inhibition of the assembly” value at FIV CA (p24) [2] is on record as “inhibition of the assembly”. For the same compound, the EC50 is 390 µM at FIV CA (p24) [1] (10 min, read-out: 10 min EC50) and 239 µM at FIV CA (p24) [1] (setting [6]). In addition, in data set [3], the “Murine macrophages (grown %)” value is 79±9%. Moreover, in the data set with Vero cell lines, the “VERO (grown %)” value was 89±5%. The IC50 in the data set with murine macrophages is over 100 µM. Moreover, the toxic effect entry in data set [4] was “without toxic effect”. Further, in [5], the inhibitory effects result is recorded as “did not display inhibitory effects”.

For `O=C(O)c1cs/c(=N/N=C/C=C/C=C/c2cccs2)n1-c1ccccc1` [compound 1136], on FIV CA (p24) [2], the “inhibition of the assembly” value was “inhibition of the assembly”. Besides, the EC50 at FIV CA (p24) [1] (10 min, read-out: 10 min EC50) worked out at 212 µM; at FIV CA (p24) [1] (setting [6]), 83 µM. In data set [3], the “Murine macrophages (grown %)” value turned out to be 95±7%. Also, the “VERO (grown %)” value in the data set with Vero cell lines is 100±9%. In addition, the inhibitory effects entry in [5] was “did not display inhibitory effects”.

As for `C=CCn1c(C(=O)O)cs/c1=N\N=C\c1ccc(/C=N/N=c2\scc(C(=O)O)n2CC=C)cc1` [compound 1310], at FIV CA (p24) [2], the “inhibition of the assembly” value is recorded as “inhibition of the assembly”. The EC50 at FIV CA (p24) [1] (10 min, read-out: 10 min EC50) stood at 655 µM; on FIV CA (p24) [1] (setting [6]), 670 µM. The “Murine macrophages (grown %)” value in data set [3] came out at 98±7%. Also, in the data set with Vero cell lines, the “VERO (grown %)” value is on record as 95±7%. The inhibitory effects entry in data set [5] is “did not display inhibitory effects”.

For `CC(/C=N/N1CCSCC1)=C\c1ccco1` [compound 878], on FIV CA (p24) [2], the “inhibition of the assembly” value is “inhibition of the assembly”. Moreover, the EC50 on FIV CA (p24) [1] (10 min, read-out: 10 min EC50) turned out to be 119 µM; on FIV CA (p24) [1] (1 h (60 min), Figure 5 panel A, read-out: 1h EC50), 166 µM; at FIV CA (p24) [1] (setting [6]) it was 166 µM. Moreover, in data set [3], the “Murine macrophages (grown %)” value stood at 98±8%. Besides, in the data set with Vero cell lines, the “VERO (grown %)” value is reported as 100±8%. Besides, the IC50 with murine macrophages is over 100 µM. The inhibitory effects result in data set [5] is recorded as “did not display inhibitory effects”.
